# Data as given in patent publication US5591714A, “Derivatives of A82846” (priority 1994, dated 1997).
# Experiments:
# [1] = test system: Escherichia coli EC14; test: MIC, standard agar-dilution assay; type: cell-based
# Description: (§1) The formula I compounds have in vitro and in vivo activity against Gram-positive pathogenic bacteria. The MIC's were determined using a standard agar-dilution assays.
# [2] = test system: Escherichia coli N10; test: MIC, standard agar-dilution assay; type: cell-based
# Description: as §1
# [3] = test system: Escherichia coli TEM; test: MIC, standard agar-dilution assay; type: cell-based
# Description: as §1
# [4] = test system: Haemophilus influenzae 76; test: MIC, standard agar-dilution assay; type: cell-based
# Description: as §1
# [5] = test system: Haemophilus influenzae C.L.; test: MIC, standard agar-dilution assay; type: cell-based
# Description: as §1
# [6] = test system: Klebsiella pneumoniae KAE; test: MIC, standard agar-dilution assay; type: cell-based
# Description: as §1
# [7] = test system: Klebsiella pneumoniae X26; test: MIC, standard agar-dilution assay; type: cell-based
# Description: as §1
# [8] = test system: Klebsiella pneumoniae X68; test: MIC, standard agar-dilution assay; type: cell-based
# Description: as §1
# [9] = test system: Staphylococcus aureus NRRL X1.1; test: MIC, standard agar-dilution assay; type: cell-based
# Description: as §1
# [10] = test system: Staphylococcus aureus V41; test: MIC, standard agar-dilution assay; type: cell-based
# Description: as §1
# [11] = test system: Staphylococcus aureus X400; test: MIC, standard agar-dilution assay; type: cell-based
# Description: as §1
# [12] = test system: Staphylococcus epidermidis 222; test: MIC, standard agar-dilution assay; type: cell-based
# Description: as §1
# [13] = test system: Staphylococcus epidermidis EPI270; test: MIC, standard agar-dilution assay; type: cell-based
# Description: as §1
# [14] = test system: Streptococcus pyogenes C203; test: MIC, standard agar-dilution assay; type: cell-based
# Description: as §1
# [15] = test system: Staphylococcus aureus S13E; type: cell-based
# Description: as §1
# [16] = test system: Streptococcus pneumoniae Park 1; type: cell-based
# Description: as §1
# [17] = test system: Enterococcus faecium X66; test: MIC, standard agar-dilution assay; type: cell-based
# Description: as §1
# ^b Formerly Streptococcus faecium X66
# [18] = test system: Enterococcus faecalis 2041; test: MIC, standard agar-dilution assay; type: cell-based
# Description: as §1
# ^c Formerly Streptococcus faecalis 2041
# [19] = test system: Staphylococcus aureus; test: In vivo activity, experimentally infected mice (ED50); details: Staphylococcus aureus infection; doses administered subcutaneously to mice 1 and 4 hours postinfection
# [20] = test system: Streptococcus pyogenes; test: as above; details: Streptococcus pyogenes infection; doses administered subcutaneously to mice 1 and 4 hours postinfection
# [21] = test system: Streptococcus pneumoniae; test: as above; details: Streptococcus pneumoniae infection; doses administered subcutaneously to mice 1 and 4 hours postinfection
# [22] = test system: vancomycin-resistant (Vanco^r) E. faecium and E. faecalis; test: Susceptibility of vancomycin-resistant enterococci, agar-dilution MIC; type: cell-based
# Description: (§2) End points were read after 24-hour incubation. The ratio was calculated by dividing the mean MIC of the compound against the vancomycin-resistant strains by the mean MIC of the compound against the vancomycin-susceptible strains.
# [23] = test system: vancomycin-susceptible (Vanco^s) E. faecium and E. faecalis; test: Susceptibility of vancomycin-susceptible enterococci, agar-dilution MIC; type: cell-based; details: n = 34 strains; end points read after 24-hour incubation
# Description: as §2
# [24] = test system: six vancomycin-susceptible strains of staphylococci and enterococci; test: Effect of human serum on the MIC, serial dilution assay; type: cell-based; details: for MIC determined in absence of added serum: absence (-) of human serum; for ratio of the MIC in the presence of added serum to the MIC in the absence of added serum: indication of the degree of serum binding; for MIC determined in presence of human serum: broth supplemented with human serum to 40%
# Source text: Another important property of the formula I compounds is the low binding of the compounds to serum proteins when compared with other glycopeptide antibiotics. […] The ratio of the MIC measured in the presence of added serum to the MIC measured in the absence of added serum ("ratio") is an indication of the degree of serum binding. […] A ratio that is greater than one, for example about ten, indicates the compound has a high degree of serum binding.
# [25] = test system: human serum protein; details: cited from earlier work
molecule,measurement,setting,value
CNC(CC(C)C)C(=O)NC1C(=O)NC(CC(N)=O)C(=O)NC2C(=O)NC3C(=O)NC(C(=O)NC(C(=O)O)c4cc(O)cc(O)c4-c4cc3ccc4O)C(OC3CC(C)(N)C(O)C(C)O3)c3ccc(c(Cl)c3)Oc3cc2cc(c3OC2OC(CO)C(O)C(O)C2OC2CC(C)(NCc3ccc(Br)cc3)C(O)C(C)O2)Oc2ccc(cc2Cl)C1O (centres unmarked) [Compound 58],MIC,[1],> 128 µg/mL
same,MIC,[2],> 128 µg/mL
same,MIC,[3],> 128 µg/mL
same,MIC,[4],> 128 µg/mL
same,MIC,[5],> 128 µg/mL
same,MIC,[6],> 128 µg/mL
same,MIC,[7],> 128 µg/mL
same,MIC,[8],> 128 µg/mL
same,MIC,[9],.5 µg/mL
same,MIC,[10],.5 µg/mL
same,MIC,[11],1 µg/mL
same,MIC,[12],.5 µg/mL
same,MIC,[13],2 µg/mL
same,MIC,[14],.125 µg/mL
same,MIC,[15],1 µg/mL
same,MIC,[16],.125 µg/mL
same,MIC,[17],.25 µg/mL
same,MIC,[18],.25 µg/mL
same,ED50,[19],0.38 mg/kg/2
same,ED50,[20],0.05 mg/kg/2
same,ED50,[21],0.08 mg/kg/2
same,Ratio (mean MIC vancomycin-resistant strains / mean MIC vancomycin-susceptible strains),[22],4.6
same,"Geometric Mean MIC, Vanco^r Strains","[22]; n = 25 strains, end points read after 24-hour incubation",3.1 µg/mL
same,"Geometric Mean MIC, Vanco^s Strains",[23],0.67 µg/mL
same,MIC determined in absence of added serum,[24],0.43
same,ratio of the MIC in the presence of added serum to the MIC in the absence of added serum,[24],2.3
same,MIC determined in presence of human serum,[24],1.0
CN[C@H](CC(C)C)C(=O)N[C@H]1C(=O)N[C@@H](CC(N)=O)C(=O)N[C@H]2C(=O)N[C@H]3C(=O)N[C@H](C(=O)N[C@H](C(=O)O)c4cc(O)cc(O)c4-c4cc3ccc4O)[C@H](O)c3ccc(c(Cl)c3)Oc3cc2cc(c3O[C@@H]2O[C@H](CO)[C@@H](O)[C@H](O)[C@H]2O[C@H]2C[C@](C)(N)[C@H](O)[C@H](C)O2)Oc2ccc(cc2Cl)[C@H]1O [vancomycin],level of human serum protein binding,[25],55%
Teicoplanin [reference compound],MIC determined in absence of added serum,[24],0.25
same,ratio of the MIC in the presence of added serum to the MIC in the absence of added serum,[24],12.6
same,MIC determined in presence of human serum,[24],3.8
same,level of human serum protein binding,[25],about 90%
